The values below come from paper PMC9572083, “Hybrids of 1,4-Quinone with Quinoline Derivatives: Synthesis, Biological Activity, and Molecular Docking with DT-Diaphorase (NQO1)” (Molecules, 2022).

T1 sequence (P15559 whole entry): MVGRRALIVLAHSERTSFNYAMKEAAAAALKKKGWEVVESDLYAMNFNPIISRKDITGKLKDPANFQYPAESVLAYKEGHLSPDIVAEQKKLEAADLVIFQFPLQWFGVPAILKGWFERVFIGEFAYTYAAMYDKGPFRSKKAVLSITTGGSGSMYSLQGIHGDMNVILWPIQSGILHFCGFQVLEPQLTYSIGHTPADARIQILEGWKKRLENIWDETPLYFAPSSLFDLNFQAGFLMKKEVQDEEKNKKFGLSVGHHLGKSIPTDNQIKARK

The first assay concerns the target T1, NQO1 (DT-diaphorase, EC 1.6.5.5, human recombinant) (Homo sapiens, UniProt P15559).
T1 construct: purchased Sigma-Aldrich
As to the kind of experiment: NQO1 substrate NADPH recycling enzymatic assay. It is filed as biochemical. The conditions noted are these: compound 10 µmol/L, pH 7.4, 25 °C, absorbance at 340 nm. The method, then:
The interaction between 1,4-quinone moiety of hybrid and NQO1 protein leads to reduction in quinone to hydroquinone and production of reactive oxide form (ROS). According to a literature method, the ability of hybrids 11–14 and streptonigrin (ST) to be a substrate for NQO1 was examined by measuring the oxidation of NADPH to NADP^+ [29, 32].
Compounds 11–14 (10 µmol/L) were tested as NQO1 substrates using the NADPH recycling assay according to the literature method. The recombinant NQO1 (DT-diaphorase, EC 1.6.5.5, human recombinant, Sigma-Aldrich) was used, and the oxidation of NADPH to NADP^+ was measured at the absorption wavelength of 340 nm on the BioTek 800TS microplate reader (BioKom, Janki, Poland). Compounds were dissolved in dimethyl sulfoxide (2 µL) and added to the 96-well plate. The NQO1 protein (1.4 µg/mL) in 50 mmol/L potassium phosphate buffer (pH = 7.4) was added to each well (198 µL) (Nunc Thermo Fisher Scientific, Waltham, MA, USA). Once the 96-well plate was filled with the assay solutions, except the NADPH solution, it was placed into the instrument and left to sit for 5 min before starting the measurements. The enzymatic reaction was initiated by automatically dispensing the NADPH solution into the wells, and data were recorded at 10 s intervals for 5 min at 25 °C. The linear part of the absorbance vs. time graphs (the first 20 s to 1 min) was fitted, and the slopes were calculated. NADPH oxidation rates were compared with reactions lacking the tested compound. Initial velocities were calculated, and data were expressed as µmol NADPH/µmol NQO1/min. All reactions were carried out at least in triplicate.
For the molecule `Cc1ccc2c(n1)C(=O)C(Oc1cccc3ccc(N4CCOCC4)nc13)=C(Cl)C2=O` [Compound 12f, 6-chloro-2-methyl-7-{[2-(morpholin-4-yl)quinolin-8-yl]oxy}quinoline-5,8-dione], the “NQO1 activity (enzymatic conversion rate)” value is 210 ± 20 µmol NADPH/µmol NQO1/min.
With `O=C1C(Cl)=C(Oc2cccc3ccc(N4CCOCC4)nc23)C(=O)c2ncccc21` [Compound 11f, 6-chloro-7-{[2-(morpholin-4-yl)quinolin-8-yl]oxy}quinoline-5,8-dione], the “NQO1 activity (enzymatic conversion rate)” value is listed as 113 ± 19 µmol NADPH/µmol NQO1/min.

The test system of another assay is Colo-829 cells. Kind of assay: Cytotoxic activity, WST-1 assay, melanoma Colo-829. Particulars: HFF-1 vs Colo-829. The assay is classed as cell-based, human. The text has this: (§1) Anticancer activity of compounds 11–14 was designated against following human cancer cell lines: melanoma (Colo-829), ovarian cancer (SK-OV-3), breast cancer (MDA-MB-231, T47D and MCF-7), lung cancer (A549) and normal fibroblasts (HFF-1). As a reference substance, the doxorubicin was used. The results are presented in Table 1 as IC50, where IC50 means the concentration of tested compounds (µM) causing the growth inhibition of 50% for given tumor cells. The negative value (Neg.) means that the IC50 is higher than 30 µM. Selectivity index (SI) as the ratio of the IC50 for normal fibroblast (HFF-1) to IC50 of the corresponding cell line, is presented in Table S2.
(§2) Compounds 7–14 and doxorubicin were tested for cytotoxic activity in vitro against panel of human cancer cell lines: melanoma (Colo-829, ATCC, Rockville, MD, USA), ovarian cancer (SK-OV-3, ATCC, Rockville, MD, USA), breast cancer (T47D, MCF-7, and MDA-MB-231, ATCC, Rockville, MD, USA) and lung cancer (A549, ATCC, Rockville, MD, USA). The cultured cells were kept at 37 °C and 5% CO2. The cells were seeded (5 × 10^4 cells/well/[…] DMEM supplemented with 10% FCS and streptomycin/penicillin) using 96-well plates (Nunc Thermo Fisher Scientific, Waltham, MA, USA). The tested compounds 7–14 with the concentration of 1–100 µg/mL DMSO were inducted with the cancer cells for 72 h. The WST-1-formazan (proliferation reagent WST-1 assay, Roche Diagnostics, Mannheim, Germany) was detected using a microplate reader at 450 nm. Results were expressed as a mean value of at least three independent experiments performed in triplicate.
On the technique in general: Formazan colour is commonly taken as a measure of viable cells.
In the case of `Cc1ccc2c(n1)C(=O)C(Oc1cccc3ccc(N4CCOCC4)nc13)=C(Cl)C2=O` [Compound 12f, 6-chloro-2-methyl-7-{[2-(morpholin-4-yl)quinolin-8-yl]oxy}quinoline-5,8-dione], the “SI (IC50 HFF-1/IC50 cancer line) Colo-829” value was found to be 1.49.
The same measure, in the same setting: under `O=C1C(Cl)=C(Oc2cccc3ccc(N4CCOCC4)nc23)C(=O)c2ncccc21` [Compound 11f, 6-chloro-7-{[2-(morpholin-4-yl)quinolin-8-yl]oxy}quinoline-5,8-dione] stands 1.83.

The assay is the same for the next values; noted with them: Homo sapiens; melanoma Colo-829, 72 h, WST-1.
For the molecule `Cc1ccc2c(n1)C(=O)C(Oc1cccc3ccc(N4CCOCC4)nc13)=C(Cl)C2=O` [Compound 12f, 6-chloro-2-methyl-7-{[2-(morpholin-4-yl)quinolin-8-yl]oxy}quinoline-5,8-dione], the IC50 (as a rule, the concentration needed to halve the response being measured) worked out at 13.3 ± 0.21 µM.
On the same count and under the same terms, for `O=C1C(Cl)=C(Oc2cccc3ccc(N4CCOCC4)nc23)C(=O)c2ncccc21` [Compound 11f, 6-chloro-7-{[2-(morpholin-4-yl)quinolin-8-yl]oxy}quinoline-5,8-dione] the value was 14 ± 1.16 µM.

The test system of a further assay is SK-OV-3 cells. Kind of assay: Cytotoxic activity, WST-1 assay, ovarian cancer SK-OV-3. It is filed as cell-based, human. The conditions noted are these: HFF-1 vs SK-OV-3.
Excerpt: as §1, §2
In the case of `Cc1ccc2c(n1)C(=O)C(Oc1cccc3ccc(N4CCOCC4)nc13)=C(Cl)C2=O` [Compound 12f, 6-chloro-2-methyl-7-{[2-(morpholin-4-yl)quinolin-8-yl]oxy}quinoline-5,8-dione], the “SI (IC50 HFF-1/IC50 cancer line) SK-OV-3” value was 1.48.
The same measure, in the same setting: for `O=C1C(Cl)=C(Oc2cccc3ccc(N4CCOCC4)nc23)C(=O)c2ncccc21` [Compound 11f, 6-chloro-7-{[2-(morpholin-4-yl)quinolin-8-yl]oxy}quinoline-5,8-dione] the value was 2.35.

Staying with this assay, now noted: Homo sapiens; ovarian cancer SK-OV-3, 72 h, WST-1.
As to `Cc1ccc2c(n1)C(=O)C(Oc1cccc3ccc(N4CCOCC4)nc13)=C(Cl)C2=O` [Compound 12f, 6-chloro-2-methyl-7-{[2-(morpholin-4-yl)quinolin-8-yl]oxy}quinoline-5,8-dione], half-maximal inhibition (IC50) was put at 13.5 ± 0.21 µM.
On the same count and under the same terms, under `O=C1C(Cl)=C(Oc2cccc3ccc(N4CCOCC4)nc23)C(=O)c2ncccc21` [Compound 11f, 6-chloro-7-{[2-(morpholin-4-yl)quinolin-8-yl]oxy}quinoline-5,8-dione] stands 10.9 ± 0.48 µM.

The subject of a further assay is MDA-MB-231 cells. As to the kind of experiment: Cytotoxic activity, WST-1 assay, breast cancer MDA-MB-231. It is filed as cell-based, human. Particulars: HFF-1 vs MDA-MB-231.
Excerpt: as §1, §2
On to `Cc1ccc2c(n1)C(=O)C(Oc1cccc3ccc(N4CCOCC4)nc13)=C(Cl)C2=O` [Compound 12f, 6-chloro-2-methyl-7-{[2-(morpholin-4-yl)quinolin-8-yl]oxy}quinoline-5,8-dione], for which the “SI (IC50 HFF-1/IC50 cancer line) MDA-MB-231” value is recorded as 1.95.
Take `O=C1C(Cl)=C(Oc2cccc3ccc(N4CCOCC4)nc23)C(=O)c2ncccc21` [Compound 11f, 6-chloro-7-{[2-(morpholin-4-yl)quinolin-8-yl]oxy}quinoline-5,8-dione]: the “SI (IC50 HFF-1/IC50 cancer line) MDA-MB-231” value came out at 1.86.

Staying with this assay, now noted: Homo sapiens; breast cancer MDA-MB-231, 72 h, WST-1.
`Cc1ccc2c(n1)C(=O)C(Oc1cccc3ccc(N4CCOCC4)nc13)=C(Cl)C2=O` [Compound 12f, 6-chloro-2-methyl-7-{[2-(morpholin-4-yl)quinolin-8-yl]oxy}quinoline-5,8-dione] showed an IC50 of 10.2 ± 0.28 µM.
`O=C1C(Cl)=C(Oc2cccc3ccc(N4CCOCC4)nc23)C(=O)c2ncccc21` [Compound 11f, 6-chloro-7-{[2-(morpholin-4-yl)quinolin-8-yl]oxy}quinoline-5,8-dione] came in with an IC50 of 13.8 ± 1.09 µM.

A further assay deals with T47D cells. Kind of assay: Cytotoxic activity, WST-1 assay, breast cancer T47D. The assay is classed as cell-based, human. Particulars: HFF-1 vs T47D.
Excerpt: as §1, §2
Regarding `Cc1ccc2c(n1)C(=O)C(Oc1cccc3ccc(N4CCOCC4)nc13)=C(Cl)C2=O` [Compound 12f, 6-chloro-2-methyl-7-{[2-(morpholin-4-yl)quinolin-8-yl]oxy}quinoline-5,8-dione], the “SI (IC50 HFF-1/IC50 cancer line) T47D” value was determined as 1.15.
`O=C1C(Cl)=C(Oc2cccc3ccc(N4CCOCC4)nc23)C(=O)c2ncccc21` [Compound 11f, 6-chloro-7-{[2-(morpholin-4-yl)quinolin-8-yl]oxy}quinoline-5,8-dione]: the “SI (IC50 HFF-1/IC50 cancer line) T47D” value came to 1.38.

The same assay, now with this note: Homo sapiens; breast cancer T47D, 72 h, WST-1.
Molecule `Cc1ccc2c(n1)C(=O)C(Oc1cccc3ccc(N4CCOCC4)nc13)=C(Cl)C2=O` [Compound 12f, 6-chloro-2-methyl-7-{[2-(morpholin-4-yl)quinolin-8-yl]oxy}quinoline-5,8-dione] displayed an IC50 of 17.3 ± 0.26 µM.
`O=C1C(Cl)=C(Oc2cccc3ccc(N4CCOCC4)nc23)C(=O)c2ncccc21` [Compound 11f, 6-chloro-7-{[2-(morpholin-4-yl)quinolin-8-yl]oxy}quinoline-5,8-dione]: the IC50 was found to be 18.6 ± 0.62 µM.

In a further assay the test system is MCF-7 cells. Kind of assay: Cytotoxic activity, WST-1 assay, breast cancer MCF-7. The assay is classed as cell-based, human. The conditions noted are these: HFF-1 vs MCF-7.
Excerpt: as §1, §2
With `Cc1ccc2c(n1)C(=O)C(Oc1cccc3ccc(N4CCOCC4)nc13)=C(Cl)C2=O` [Compound 12f, 6-chloro-2-methyl-7-{[2-(morpholin-4-yl)quinolin-8-yl]oxy}quinoline-5,8-dione], the “SI (IC50 HFF-1/IC50 cancer line) MCF-7” value came out at 1.41.
On the same count and under the same terms, for `O=C1C(Cl)=C(Oc2cccc3ccc(N4CCOCC4)nc23)C(=O)c2ncccc21` [Compound 11f, 6-chloro-7-{[2-(morpholin-4-yl)quinolin-8-yl]oxy}quinoline-5,8-dione] the value was 1.58.

The assay is the same for the next values; noted with them: Homo sapiens, MCF7; breast cancer MCF-7, 72 h, WST-1.
`Cc1ccc2c(n1)C(=O)C(Oc1cccc3ccc(N4CCOCC4)nc13)=C(Cl)C2=O` [Compound 12f, 6-chloro-2-methyl-7-{[2-(morpholin-4-yl)quinolin-8-yl]oxy}quinoline-5,8-dione] gave an IC50 of 14.1 ± 0.67 µM.
Consider `O=C1C(Cl)=C(Oc2cccc3ccc(N4CCOCC4)nc23)C(=O)c2ncccc21` [Compound 11f, 6-chloro-7-{[2-(morpholin-4-yl)quinolin-8-yl]oxy}quinoline-5,8-dione], for which inhibition was half-maximal at 16.21 ± 0.12 µM (IC50).

The test system of another assay is A549 cells. Kind of assay: Cytotoxic activity, WST-1 assay, lung cancer A549. The assay is classed as cell-based, human. The conditions noted are these: HFF-1 vs A549.
Excerpt: as §1, §2
For the molecule `Cc1ccc2c(n1)C(=O)C(Oc1cccc3ccc(N4CCOCC4)nc13)=C(Cl)C2=O` [Compound 12f, 6-chloro-2-methyl-7-{[2-(morpholin-4-yl)quinolin-8-yl]oxy}quinoline-5,8-dione], the “SI (IC50 HFF-1/IC50 cancer line) A549” value worked out at 1.72.
On the same count and under the same terms, under `O=C1C(Cl)=C(Oc2cccc3ccc(N4CCOCC4)nc23)C(=O)c2ncccc21` [Compound 11f, 6-chloro-7-{[2-(morpholin-4-yl)quinolin-8-yl]oxy}quinoline-5,8-dione] stands 2.03.

The same assay, now with this note: Homo sapiens; lung cancer A549, 72 h, WST-1.
As to `Cc1ccc2c(n1)C(=O)C(Oc1cccc3ccc(N4CCOCC4)nc13)=C(Cl)C2=O` [Compound 12f, 6-chloro-2-methyl-7-{[2-(morpholin-4-yl)quinolin-8-yl]oxy}quinoline-5,8-dione], the half-inhibitory concentration (IC50) was 11.6 ± 0.72 µM.
Same read-out and setting: under `O=C1C(Cl)=C(Oc2cccc3ccc(N4CCOCC4)nc23)C(=O)c2ncccc21` [Compound 11f, 6-chloro-7-{[2-(morpholin-4-yl)quinolin-8-yl]oxy}quinoline-5,8-dione] stands 12.6 ± 0.82 µM.

In another assay the test system is HFF-1 cells. As to the kind of experiment: Cytotoxic activity, WST-1 assay, normal fibroblasts HFF-1. The assay is classed as cell-based. Particulars: Homo sapiens, normal fibroblasts HFF-1, 72 h.
Excerpt: as §1, §2
Regarding `Cc1ccc2c(n1)C(=O)C(Oc1cccc3ccc(N4CCOCC4)nc13)=C(Cl)C2=O` [Compound 12f, 6-chloro-2-methyl-7-{[2-(morpholin-4-yl)quinolin-8-yl]oxy}quinoline-5,8-dione], the IC50 was 19.9 ± 0.93 µM.
As to `O=C1C(Cl)=C(Oc2cccc3ccc(N4CCOCC4)nc23)C(=O)c2ncccc21` [Compound 11f, 6-chloro-7-{[2-(morpholin-4-yl)quinolin-8-yl]oxy}quinoline-5,8-dione], the IC50 was found to be 25.64 ± 0.19 µM.
